Measured values published in ChEMBL document CHEMBL4680285, “Aminothiazolones as potent, selective and cell active inhibitors of the PIM kinase family” (Bioorg Med Chem, 2020).

Test: Half life in mouse liver S9 fraction
Type: ADME, subcellular

Row | Compound | half-life [min]
1 | CC(C)(CO)CNC1=NC(=O)/C(=C/c2csc(-c3cccc(OC(F)(F)F)c3O)n2)S1 | 84.2
2 | O=C1N=C(N[C@H]2CCC[C@@H]2CO)S/C1=C\c1csc(-c2cccc(F)c2O)n1 (stereo in doubt) | 22.1
3 | CC(C)(CO)CNC1=NC(=O)/C(=C/c2csc(-c3ccc(F)cc3O)n2)S1 | 45.6
4 | O=C1N=C(NCC2CCN(CCO)CC2)S/C1=C\c1csc(-c2ccccc2O)n1 | > 120
5 | O=C1N=C(NCC2(CO)CC2)S/C1=C\c1csc(-c2ccccc2O)n1 | 28.9
6 | CC(C)(CO)CNC1=NC(=O)/C(=C/c2csc(-c3cccc(F)c3O)n2)S1 | 44.4

Test: Half life in mouse liver microsomes
Type: ADME, Microsome

Row | Compound | half-life [min]
7 | CN1CCC(CNC2=NC(=O)/C(=C/c3csc(-c4ccc(C(F)(F)F)cc4)n3)S2)CC1 | > 120
8 | CN1CCC(CNC2=NC(=O)/C(=C/c3csc(-c4cccc(N(C)S(C)(=O)=O)c4)n3)S2)CC1 | 27.5
9 | O=C1N=C(NCC2(CO)CCC2)S/C1=C\c1csc(-c2ccc(OC(F)(F)F)cc2)n1 | > 120
10 | CC(C)(CO)CNC1=NC(=O)/C(=C/c2csc(-c3cccc(OC(F)(F)F)c3)n2)S1 | > 120
11 | O=C1NC(=S)S/C1=C\c1csc(-c2ccc(C(F)(F)F)cc2)n1 | 49
12 | CN(C)S(=O)(=O)Nc1cccc(-c2nc(/C=C3\SC(NCC(C)(C)CO)=NC3=O)cs2)c1 | 7.56
13 | CC(C)(CO)CNC1=NC(=O)/C(=C/c2csc(-c3ccc(OC(F)(F)F)cc3)n2)S1 | > 120
14 | O=C1N=C(NCC2(CO)CC2)S/C1=C\c1csc(-c2ccc(OC(F)(F)F)cc2)n1 | > 120
15 | CN(C)CCNC1=NC(=O)/C(=C/c2csc(-c3ccc(OC(F)(F)F)cc3)n2)S1 | > 120
16 | CN(c1cccc(-c2nc(/C=C3\SC(NCC(C)(C)CO)=NC3=O)cs2)c1)S(C)(=O)=O | 5.68
17 | O=C1N=C(N[C@H]2CC[C@H](O)CC2)S/C1=C\c1csc(-c2ccc(OC(F)(F)F)cc2)n1 | 781
18 | CN1CCC(CNC2=NC(=O)/C(=C/c3ccc(-c4cccc(Cl)c4)o3)S2)CC1 | > 120
19 | N=C1NC(=O)/C(=C/c2csc(-c3ccc(C(F)(F)F)cc3)n2)S1 | > 100
